From patent publication EP0902088A2, “Peptides with antiproliferative properties” (Radulescu, Razvan T., priority 1996, dated 1999)

Key:
[1] = tested on: SAOS-2-Zellen; test: Cell cycle analysis by FACS in SAOS-2 osteosarcoma cells; assay type: cell-based, human; conditions: peptide 10^-5M
From the text: (§1) Die eine Versuchsanordnung beinhaltet Versuche mit der humanen intaktes Retinoblastomprotein enthaltenden Mammakarzinom-Zell-Linie MCF-7 bzw. der humanen defektes Retinoblastomprotein enthaltenden Osteosarkom-Zell-Linie SAOS-2. Man sät die Zellen zuerst in 12-well-Platten 100.000 (= Hunderttausend) Zellen/-well/ml RPMI oder DMEM/10% FCS) aus, läßt sie 24 Stunden adhärieren, hungert sie anschließend 3 Tage in DMEM ohne FCS mit dem Zweck, die Zellen in der G0/G1-Phase zu synchronisieren, und stimuliert sie dann entweder mit 10% FCS oder 10^-8 M IGF-1 oder 10^-6 M Insulin für 24 Stunden, wobei der Effekt der jeweils zugegebenen Peptide auf die jeweilige Stimulation, die ein Maß für die Zellteilungsrate ist, untersucht wird. Die Kontrollgruppe (G0/G1-synchronisierte Zellen) wird zum Zeitpunkt 0 nach der dreitägigen Hungerphase fixiert, die restlichen Zellen (+/- Peptid) werden nach 24 Stunden fixiert. Daraufhin werden die Zellen zwecks Zellzyklusanalyse im FACS analysiert. Analoge Methoden finden sich beispielsweise bei R. Fahraeus et al., Current Biology, 1996, Vol. 6, No. 1, pp 84-91 sowie bei L. Zhu et al., Genes & Development, 1993, Vol. 7, pp. 1111-1125.

[2] = tested on: CCRF-CEMsensitiv; test: Cytotoxicity by trypan blue counting in CCRF-CEM (sensitive) leukaemia cells; assay type: cell-based; conditions: asynchronous CCRF-CEM (sensitive) in RPMI with 10 % FCS; peptide 10^-5
From the text: (§2) Die zweite Versuchsanordnung betrifft die Leukämie-Zell-Linien K562 und CCRF-CEM und CCRF-CEM/ACT400. Hierbei wurden jeweils 100.000 asynchrone Zellen/well/ml RPMI/10% FCS für 48 Stunden mit den jeweiligen Peptiden in 6-well-Platten inkubiert. Als Readout gilt die Anzahl der mit Hilfe der Trypanblaufärbung (L.D. Attardi et al., The EMBO Journal, 1996, Vol. 15, No. 14, pp. 3693-3701 und M.K. Reeder & H.C. Isom, Cell Growth & Differentiation, 1996, Vol. 7, pp. 449-460) nach 48 Stunden Inkubationszeit festgestellten toten Zellen/200 ausgezählte Zellen. Je mehr tote Zellen, desto zytotoxischer das Peptid und damit umso effektiver.

[3] = tested on: K562-Zellen; test: Cytotoxicity by trypan blue counting in K562 leukaemia cells; assay type: cell-based; conditions: asynchronous K562 in RPMI with 10 % FCS, peptide 10^-5M, several time points
From the text: Fig. 13 zeigt, daß der zytotoxische Effekt des erfindungsgemäßen Peptids P3 [10^-5M] auf asynchrone K562-Zellen, die in RPMI-Zellkulturmedium mit 10 % FCS inkubiert wurden, zeitabhängig ist. Die Ergebnisse wurden aufgetragen als lebende mit P3 behandelte Zellen als Prozent der lebenden mit P3 nicht behandelten Zellen. Die Zahl der lebenden Zellen wurde ermittelt, indem man mindestens 200 Zellen mit der Trypanblaumethode zu jedem angegebenen Zeitpunkt auszählte.
as §2

[4] = tested on: MCF-7-Zellen; test: Cell cycle analysis by FACS in MCF-7 breast carcinoma cells; assay type: cell-based, human
From the text: as §1, with “[…],” for “hungert sie anschließend 3 Tage in DMEM ohne FCS mit dem Zweck, die Zellen in der G0/G1-Phase zu synchronisieren,”

[5] = tested on: normale humane mononukleäre Zellen des peripheren Blutes; test: Effect on normal peripheral blood mononuclear cells; assay type: cell-based, human; conditions: peptide 10^-5, 24 h incubation
From the text: Fig. 15 zeigt, daß das erfindungsgemäße Peptid P3 [10^-5] keinen Effekt auf normale humane mononukleäre Zellen des peripheren Blutes hat, unabhängig davon, ob diese sich in einem ruhenden (a) oder aktivierten (b) Zustand befinden. […] Die Inkubation der Zellen mit P3 erfolgte für einen Zeitraum von 24 Stunden.

[6] = tested on: CCRF-CEM/ACT 400resistent-Zellen; test: Cytotoxicity by trypan blue counting in CCRF-CEM/ACT 400 (resistant) leukaemia cells; assay type: cell-based; conditions: asynchronous CCRF-CEM/ACT 400 (resistant) in RPMI with 10 % FCS; peptide 10^-5
From the text: as §2

[7] = G0/G1-synchronised SAOS-2 cells, serum-free
[8] = G0/G1-synchronised MCF-7 cells, serum-free, peptide 10^-5M
[9] = MCF-7 stimulated with EGF 10^-8, peptide 10^-5M
[10] = MCF-7 stimulated with IGF-1 10^-8M, peptide 10^-5M
[11] = MCF-7 stimulated with Östradiol (E2) 10^-9M, peptide 10^-5M
[12] = asynchronous MCF-7 in DMEM with 10 % FCS, peptide 10^-5M

`CC(C)C[C@@H](N)C(=O)N[C@H](Cc1ccccc1)C(=O)N[C@H](Cc1ccc(O)cc1)C(=O)N[C@H](CCCCN)C(=O)N[C@H](CCCCN)C(=O)N[C@@H](C(=O)NCC(=O)NCC(=O)NCC(=O)NCCCC[C@H](NC(=O)CNC(=O)CNC(=O)CNC(=O)[C@H](NC(=O)[C@@H](CCCCN)NC(=O)[C@@H](CCCCN)NC(=O)[C@@H](Cc1ccc(O)cc1)NC(=O)[C@@H](Cc1ccccc1)NC(=O)[C@H](N)CC(C)C)C(C)C)C(=O)N[C@H](CCCNC(=N)N)C(=O)NCC(=O)NCCCC[C@H](NC(=O)CNC(=O)[C@@H](CCCNC(=N)N)NC(=O)[C@H](CCCCNC(=O)CNC(=O)CNC(=O)CNC(=O)[C@H](NC(=O)[C@@H](CCCCN)NC(=O)[C@@H](CCCCN)NC(=O)[C@@H](Cc1ccc(O)cc1)NC(=O)[C@@H](Cc1ccccc1)NC(=O)[C@H](N)CC(C)C)C(C)C)NC(=O)CNC(=O)CNC(=O)CNC(=O)[C@H](NC(=O)[C@@H](CCCCN)NC(=O)[C@@H](CCCCN)NC(=O)[C@@H](Cc1ccc(O)cc1)NC(=O)[C@@H](Cc1ccccc1)NC(=O)[C@H](N)CC(C)C)C(C)C)C(=O)NCC(=O)O)C(C)C` (racemic) [P3, NH2-[dL-dF-dY-dK-dK-dV-GGG]4-[lK-dR-G]2-lK-G-COOH] was tested, and the G1-Phase [1, 7] was “vermindert”, the G2-Phase [1, 7] was “erhöht” and the “Morphologie der behandelten Zellen” value [1, 7] was “entspricht der apoptotischer Zellen”. The S-Phase [1, 7] was “erhöht”, the G1-Phase ([1]; SAOS-2 stimulated with 10 % FS) was “Zunahme” and the “Morphologie der behandelten Zellen” value ([1]; SAOS-2 stimulated with 10 % FS) was “entspricht der apoptotischer Zellen”. For the same molecule, the S-Phase ([1]; SAOS-2 stimulated with 10 % FS) was “Abnahme”, the “zytotoxischer Effekt” value [2] was “zytotoxisch” and the “zytotoxische Effekt (lebende mit P3 behandelte Zellen als Prozent der lebenden mit P3 nicht behandelten Zellen)” value [3] was “zeitabhängig”. For the same molecule, the G1-Phase [4, 8] was “vermindert”, the “Morphologie der behandelten Zellen” value [4, 8] was “entspricht der apoptotischer Zellen” and the S-Phase [4, 8] was “erhöht”. The G1-Phase [4, 9] was “Zunahme”, the G2-Phase [4, 9] was “Zunahme” and the “Morphologie der behandelten Zellen” value [4, 9] was “entspricht der apoptotischer Zellen”. For the same molecule, the S-Phase [4, 9] was “Abnahme”, the “Morphologie der behandelten Zellen” value ([4]; MCF-7 stimulated with IGF-1 10^-8M, peptide 5 x 10^-6M) was “entspricht jeweils der apoptotischer Zellen” and the G1-Phase [4, 10] was “Zunahme”. For the same molecule, the G2/M-Phase [4, 10] was “Zunahme”, the “Morphologie der behandelten Zellen” value [4, 10] was “entspricht jeweils der apoptotischer Zellen” and the S-Phase [4, 10] was “Abnahme”. The “durch IGF-1 [10^-8M] bedingte Fortschreiten des Zellzyklus” value ([4]; MCF-7 stimulated with IGF-1 10^-8M, several peptide concentrations (Fig. 7)) was “in einer konzentrationsabhängigen Weise blockiert”, the G1-Phase [4, 11] was “Zunahme” and the G2-Phase [4, 11] was “Zunahme”. The “Morphologie der behandelten Zellen” value [4, 11] was “entspricht der apoptotischer Zellen”, the S-Phase [4, 11] was “Abnahme” and the G1-Phase [4, 12] was “vermindert”. The “Morphologie der behandelten Zellen” value [4, 12] was “entspricht der apoptotischer Zellen”, the S-Phase [4, 12] was “erhöht” and the “Effekt auf normale humane mononukleäre Zellen des peripheren Blutes” value ([5]; activated state (b)) was “keinen Effekt”. The “morphologische Veränderungen” value ([5]; resting or activated cells) was “keine morphologischen Veränderungen”, the “Effekt auf normale humane mononukleäre Zellen des peripheren Blutes” value ([5]; resting state (a)) was “keinen Effekt” and the “zytotoxischer Effekt” value [6] was “zytotoxisch”.
